Measurements from US20130172248A1, “3-[4-(PHENYLAMINOOXALYLAMINO)PHENYL]HEX-4-YNOIC ACIDS, PROCESS FOR PREPARATION THEREOF AND USE THEREOF AS A MEDICAMENT” (priority 2012, published 2013).
Each block holds one molecule with its values, some of them ahead of it.

Assays:
GPCR GPR40 (human) = target: T1, GPCR GPR40 (human) (Homo sapiens, UniProt O14842); assay: In vitro FLIPR assay with recombinant HEK293 cells which express the GPCR GPR40 (intracellular Ca2+); assay type: cell-based; details: recombinant HEK293 cells expressing human GPR40; 100% = 10 μM linoleic acid reference agonist; read-out: hGPR40 EC50
T1 construct: expressed in transfected cells; host or cells: HEK293
T1 sequence (O14842 whole entry): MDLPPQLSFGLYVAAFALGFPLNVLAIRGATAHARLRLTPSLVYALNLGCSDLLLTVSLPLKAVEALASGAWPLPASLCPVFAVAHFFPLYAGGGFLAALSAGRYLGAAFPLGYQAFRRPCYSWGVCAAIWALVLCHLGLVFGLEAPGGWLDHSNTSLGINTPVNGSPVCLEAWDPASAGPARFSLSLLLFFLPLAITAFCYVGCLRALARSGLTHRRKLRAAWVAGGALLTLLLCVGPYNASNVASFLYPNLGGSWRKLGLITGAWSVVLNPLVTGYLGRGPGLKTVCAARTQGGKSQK
Protocol: In Vitro FLIPR Assay with Recombinant Cells which Express the GPCR GPR40
Function-testing assays were performed by means of the FLIPR technique (“Fluorescence Imaging Plate Reader”, Molecular Devices Corp.). For this purpose, agonist-induced changes were determined in the intracellular concentration of Ca^2+ in recombinant HEK293 cells which expressed the GPCR GPR40 (human).
For the studies, cells were sown into 96-well microtiter plates (60 000 cells/well) and left to grow overnight. The medium was removed and the cells were incubated in buffer which contained the fluorescent dye Fluo-4. After this loading with dye, the cells were washed, test substance was added and changes were measured in the intracellular Ca^2+ concentration in the FLIPR instrument. Results were presented as the percentage change relative to the control (0%: no test substance added; 100%: 10 μM linoleic acid reference agonist added) and used for calculation of dose/efficacy curves, and the EC50 values were thus determined. The mean effective concentration (EC50) is the dose at which a half-maximum effect is observed.

human S1P1 receptor = assay: Determination of S1P1 receptor activation (intracellular calcium release, FLIPR, CHO cells); assay type: cell-based; details: compound at 10 μM; in percent of activation by 100 nM S1P
Protocol: Determination of S1P1 Receptor Activation
The activation of the S1P1 receptor by the chemical compounds described in the present invention disclosure was determined via the S1P1 receptor-mediated release of intracellular calcium.
The CHO (chinese hamster ovarian) cells used here was stably overexpressed with the human S1P1 receptor (Flp-In System, Invitrogen). In order to amplify the signal transduction of the receptor in the direction of a cellular calcium response, a receptor modified at the C terminus was used, which contained the sequence of a modified G protein (Gαi4qi4) (WO 02/04665). The changes in intracellular calcium were determined by means of the calcium-sensitive fluorescent dye Fluo-4 (Invitrogen) in an appropriate plate reader (FLIPR, […]).
To prepare the measurement, the cells were sown in 96-well plates (Becton Dickinson, Biocoat cellware, poly-D-lysine coated, #354640) with 40 000 cells per cavity between 18 and 24 hours before the calcium measurement. For the intervening period, the cells were cultivated in an incubator under 95% air humidity with 5% CO2 gas in a medium based on F-12 Glutamax (Gibco #31765), which was additionally supplemented with 1% (vol/vol) penicillin/streptomycin (PAN, #P06-07100), 10% (vol/vol) fetal calf serum (Hyclone charcoal/dextran treated FBS #SH30068) and Hygromycin B (final concentration 300 mg/l; Invitrogen, #10687-010).
For calcium measurement, the cells were laden beforehand with the acetoxymethyl ester derivative of the Fluo-4 dye (Fluo-4 AM, Invitrogen, #F14202) for 60 min. During the loading, which took place in the incubator under the conditions specified above, the cells were incubated with an HBSS buffer (Hanks' Balanced Salt Solution; Invitrogen #14065049) which had been supplemented with Fluo-4 AM (acetoxymethyl ester of Fluo-4; 2 μM; all figures are based on final concentrations), Pluronic® F-127 (0.05% vol/vol; Invitrogen, #P-3000 MP), HEPES (20 mM; Gibco #15630), probenecid (2.5 mM; Sigma #P-8761) and bovine serum albumin (0.05%; Sigma #A-6003). This buffer was finally adjusted to a pH of 7.5 with sodium hydroxide.
During the loading with Fluo-4, the acetoxymethyl ester is cleaved by intracellular esterases, and so there is intracellular accumulation of the dye. The loading of the cells was ended by washing three times (Tecan, Power Washer) with a wash buffer.
The wash buffer was also used for the later fluorescence-based calcium measurement. In this case, the laden and washed cells were stimulated with the compounds described (dissolved in DMSO; maximum final DMSO concentration 0.3%) in different concentrations. […]
All measurements were conducted as triplicates, and the individual values thereof were averaged for further calculation. The percentage activation of the S1P1 receptor, which was caused in some cases by the compounds described, was calculated using the S1P-related calcium response (positive control). Before this calculation, a background correction took place, by subtracting the value of the base control (DMSO control) from all other fluorescence values detected.
Using the specific cellular fluorescence response at different concentrations of the compounds used, concentrations were calculated at which the cell response was at half maximum (EC50 value). […] Here too, the percentage activation of the receptor was calculated using the positive control (S1P, 100 nM) and base control (DMSO control).

EC50 (GPCR GPR40 (human)): 2 nM
Compound: CC#C[C@@H](CC(=O)O)c1ccc(NC(=O)C(=O)Nc2cccc(C(C)(C)C)c2)cc1 [Example 2, (S)-3-{4-[(3-tert-butylphenylaminooxalyl)amino]phenyl}hex-4-ynoic acid]
S1P1 receptor activation, % activation (human S1P1 receptor): 1%

EC50 (GPCR GPR40 (human)): 7 nM
Compound: CC#C[C@@H](CC(=O)O)c1ccc(NC(=O)C(=O)Nc2cccc(C(C)C)c2)cc1 [Example 4, (S)-3-{4-[(3-isopropylphenylaminooxalyl)amino]phenyl}hex-4-ynoic acid]
S1P1 receptor activation, % activation (human S1P1 receptor): 0%

EC50 (GPCR GPR40 (human)): 1550 nM
Compound: CC#C[C@H](CC(=O)O)c1ccc(NC(=O)C(=O)Nc2cccc(C(C)(C)C)c2)cc1 [compound 7, (R)-3-{4-[(3-tert-butylphenylaminooxalyl)amino]phenyl}hex-4-ynoic acid, reference compound]

EC50 (GPCR GPR40 (human)): 1780 nM
Compound: CC#C[C@H](CC(=O)O)c1ccc(NC(=O)C(=O)Nc2cc(C(F)(F)F)ccc2C)cc1 [compound 8, (R)-3-{4-[(2-methyl-5-trifluoromethylphenylaminooxalyl)amino]phenyl}hex-4-ynoic acid, reference compound]

EC50 (GPCR GPR40 (human)): 2070 nM
Compound: CC#C[C@H](CC(=O)O)c1ccc(NC(=O)C(=O)Nc2cccc(C(C)C)c2)cc1 [compound 9, (R)-3-{4-[(3-isopropylphenylaminooxalyl)amino]phenyl}hex-4-ynoic acid, reference compound]

The remaining lines, values behind:

Compound: CC#C[C@@H](CC(=O)O)c1ccc(NC(=O)C(=O)Nc2cc(C(F)(F)F)ccc2C(F)(F)F)cc1 [Example 1, (S)-3-{4-[(2,5-bis(trifluoromethyl)phenylaminooxalyl)amino]phenyl}hex-4-ynoic acid]
EC50 (GPCR GPR40 (human)): 0.4 nM
S1P1 receptor activation, % activation (human S1P1 receptor): 0%

Compound: CC#C[C@@H](CC(=O)O)c1ccc(NC(=O)C(=O)Nc2cc(C(F)(F)F)ccc2C)cc1 [Example 3, (S)-3-{4-[(2-methyl-5-trifluoromethylphenylaminooxalyl)amino]phenyl}hex-4-ynoic acid]
EC50 (GPCR GPR40 (human)): 4 nM
S1P1 receptor activation, % activation (human S1P1 receptor): 1%

Compound: CC#C[C@@H](CC(=O)O)c1ccc(NC(=O)C(=O)Nc2cc(C(F)(F)F)ccc2Cl)cc1 [Example 5, (S)-3-{4-[(2-chloro-5-trifluoromethylphenylaminooxalyl)amino]phenyl}hex-4-ynoic acid]
EC50 (GPCR GPR40 (human)): 2 nM
S1P1 receptor activation, % activation (human S1P1 receptor): 0%

Compound: CC#C[C@H](CC(=O)O)c1ccc(NC(=O)C(=O)Nc2cc(C(F)(F)F)ccc2C(F)(F)F)cc1 [compound 6, (R)-3-{4-[(2,5-bis(trifluoromethyl)phenylaminooxalyl)amino]phenyl}hex-4-ynoic acid, reference compound]
EC50 (GPCR GPR40 (human)): 734 nM

Compound: CC#C[C@H](CC(=O)O)c1ccc(NC(=O)C(=O)Nc2cc(C(F)(F)F)ccc2Cl)cc1 [compound 10, (R)-3-{4-[(2-chloro-5-trifluoromethylphenylaminooxalyl)amino]phenyl}hex-4-ynoic acid, reference compound]
EC50 (GPCR GPR40 (human)): 2290 nM
